Series [1] is described as follows: Partition coefficient (logD) (octanol/borax buffer). It is filed as physicochemical.
For series [2], the target named is Histamine H2 receptor (Cavia porcellus) (UniProt P47747). As to the kind of experiment: Histamine H2 receptor blocking activity was determined in the isolated guinea pig right atrium against histamine stimulated tachycardia. It is filed as tissue-based. The conditions noted are these: Cardiac atrium.
Sequence of Histamine H2 receptor (Cavia porcellus) (P47747 whole entry): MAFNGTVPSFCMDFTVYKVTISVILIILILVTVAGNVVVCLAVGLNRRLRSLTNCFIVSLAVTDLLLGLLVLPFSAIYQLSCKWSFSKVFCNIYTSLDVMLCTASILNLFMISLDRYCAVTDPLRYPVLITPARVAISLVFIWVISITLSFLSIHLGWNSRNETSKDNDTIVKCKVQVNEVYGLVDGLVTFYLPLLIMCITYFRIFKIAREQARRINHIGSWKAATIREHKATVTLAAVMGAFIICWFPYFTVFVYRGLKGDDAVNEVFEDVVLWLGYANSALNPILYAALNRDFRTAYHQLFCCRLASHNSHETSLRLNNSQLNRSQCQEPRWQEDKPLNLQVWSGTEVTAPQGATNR

As to `Cc1[nH]cnc1CSCCNc1ccnc(O)n1`, the logD (as a rule, the decadic logarithm of the distribution of all forms, ionised or not, between an organic phase and buffer at a given pH) in series [1] is -0.4. In addition, the -Log KB in series [2] is under 4.5.

In series [1], `Cc1[nH]cnc1CSCCNC1=NC(=O)CN1` displayed a logD of -0.5. The -Log KB in series [2] came to 4.21.

In series [1], `Cc1[nH]cnc1CSCCNc1nccc(O)n1` showed a logD of 0.02. In addition, the -Log KB in series [2] was determined as 5.13.

For the compound `CNC(=O)NCCSCc1[nH]cnc1C`, the logD in series [1] was -0.06. Further, in series [2], the -Log KB came to 4.69.

`Cc1[nH]cnc1CSCCNc1cc(O)ccn1` showed a logD in series [1] of 0.8. This compound registered a -Log KB in series [2] of 4.8.

Compound `Cc1[nH]cnc1CSCCNc1cccc(O)n1` yielded a logD in series [1] of 0.79. The compound also gave a -Log KB in series [2] of under 4.

Take `C/N=c1\c(O)c(O)\c1=N\CCSCc1[nH]cnc1C`: the logD in series [1] is -0.08. For the same compound, in series [2], the -Log KB came out at 4.23.

Consider `Cc1[nH]cnc1CSCCNc1nccc(O)c1[N+](=O)[O-]`, for which, in series [1], the logD was -0.2. The compound further registered a -Log KB in series [2] of 6.44.

In series [1], `CN/C(=C/[N+](=O)[O-])NCCSCc1[nH]cnc1C` registered a log distribution coefficient (logD) of -0.4. Moreover, the -Log KB in series [2] came out at 5.85.

Compound `Cc1[nH]cnc1CSCCNc1[nH]ccc1[N+](=O)[O-]` had a logD in series [1] of 1.04. In series [2], the -Log KB stood at 7.31.

Regarding `C/N=C(/NCCSCc1[nH]cnc1C)N[N+](=O)[O-]`, the -Log KB in series [2] came to 5.84.

In series [1], `Cc1[nH]cnc1CSCCNC1=C([N+](=O)[O-])CCN1` gave a log distribution coefficient (logD) of -0.87. This compound also had a -Log KB in series [2] of 6.31.

For the compound `CNC(=N[N+](=O)[O-])NCCSCc1nc[nH]c1C`, in series [1], the logD was 0.13.

In series [1], `C/N=C(\S)NCCSCc1[nH]cnc1C` [METIAMIDE] displayed a log distribution coefficient (logD) of 0.55.

In series [1], `Cc1[nH]cnc1CSCCNC1=NCCS(=O)(=O)N1` gave a pH-dependent lipophilicity (logD) of -0.74. The -Log KB in series [2] was 4.57.

In series [2], `CNC(=S)NCCSCc1[nH]cnc1C` had a -Log KB of 6.04.
